# Assays:
# [1] = system: Microcystis aeruginosa; experiment: Growth inhibition of Microcystis aeruginosa NIES-88 after 5 days; assay type: functional, organism-based; settings: NIES-88, 120 h
# [2] = Inhibition of alpha-chymotrypsin
structure (smiles),measurement,setting,value
CCCCCC(=O)N[C@H](CCc1ccc(O)cc1)C(=O)N[C@@H](CCc1ccc(O)cc1)C(=O)N[C@H](Cc1ccccc1)C(=O)O [SPIROIDESIN],IC50,[1],1.6 µM
same,IC50,[2],10 µM

# From ChEMBL document CHEMBL1150599, “Spiroidesin, a novel lipopeptide from the cyanobacterium Anabaena spiroides that inhibits cell growth of the cyanobacterium Microcystis aeruginosa” (J Nat Prod, 2002)
